Key:
GCN2 kinase = GCN2 kinase (Homo sapiens, UniProt Q9P2K8); test: GCN2 enzyme inhibition assay (Transcreener ADP2 fluorescence polarization); assay type: biochemical; details: Enzyme activity for compounds of Formula IV; Ki(app), 280 μM ATP, 25° C.
Summary of the method: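 Human GCN2 (4 nM) preincubated 10 min with compound (0–8 μM) and 200 μM (RS)7 peptide in Tris-HCl pH 7.5, NaCl, MgCl2, DTT. Reaction started with 280 μM ATP, run 1 h at 25 °C. ADP detected by Transcreener fluorescence polarization. IC50 and Ki(app) fitted by tight-binding algorithm.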

[1] = biological target: intracellular GCN2 (phosphorylation of the GCN2 substrate eIF2α) (Homo sapiens, UniProt Q9P2K8); test: GCN2 cellular inhibition assay (AlphaScreen SureFire P-eIF2α Ser51, borrelidin-treated U2OS cells); assay type: cell-based; details: compounds of Formula IV; biomarker assay, phosphorylated eIF2α Ser51 in borrelidin-treated U2OS cells
Chain of intracellular GCN2 (phosphorylation of the GCN2 substrate eIF2α) (Q9P2K8 whole entry): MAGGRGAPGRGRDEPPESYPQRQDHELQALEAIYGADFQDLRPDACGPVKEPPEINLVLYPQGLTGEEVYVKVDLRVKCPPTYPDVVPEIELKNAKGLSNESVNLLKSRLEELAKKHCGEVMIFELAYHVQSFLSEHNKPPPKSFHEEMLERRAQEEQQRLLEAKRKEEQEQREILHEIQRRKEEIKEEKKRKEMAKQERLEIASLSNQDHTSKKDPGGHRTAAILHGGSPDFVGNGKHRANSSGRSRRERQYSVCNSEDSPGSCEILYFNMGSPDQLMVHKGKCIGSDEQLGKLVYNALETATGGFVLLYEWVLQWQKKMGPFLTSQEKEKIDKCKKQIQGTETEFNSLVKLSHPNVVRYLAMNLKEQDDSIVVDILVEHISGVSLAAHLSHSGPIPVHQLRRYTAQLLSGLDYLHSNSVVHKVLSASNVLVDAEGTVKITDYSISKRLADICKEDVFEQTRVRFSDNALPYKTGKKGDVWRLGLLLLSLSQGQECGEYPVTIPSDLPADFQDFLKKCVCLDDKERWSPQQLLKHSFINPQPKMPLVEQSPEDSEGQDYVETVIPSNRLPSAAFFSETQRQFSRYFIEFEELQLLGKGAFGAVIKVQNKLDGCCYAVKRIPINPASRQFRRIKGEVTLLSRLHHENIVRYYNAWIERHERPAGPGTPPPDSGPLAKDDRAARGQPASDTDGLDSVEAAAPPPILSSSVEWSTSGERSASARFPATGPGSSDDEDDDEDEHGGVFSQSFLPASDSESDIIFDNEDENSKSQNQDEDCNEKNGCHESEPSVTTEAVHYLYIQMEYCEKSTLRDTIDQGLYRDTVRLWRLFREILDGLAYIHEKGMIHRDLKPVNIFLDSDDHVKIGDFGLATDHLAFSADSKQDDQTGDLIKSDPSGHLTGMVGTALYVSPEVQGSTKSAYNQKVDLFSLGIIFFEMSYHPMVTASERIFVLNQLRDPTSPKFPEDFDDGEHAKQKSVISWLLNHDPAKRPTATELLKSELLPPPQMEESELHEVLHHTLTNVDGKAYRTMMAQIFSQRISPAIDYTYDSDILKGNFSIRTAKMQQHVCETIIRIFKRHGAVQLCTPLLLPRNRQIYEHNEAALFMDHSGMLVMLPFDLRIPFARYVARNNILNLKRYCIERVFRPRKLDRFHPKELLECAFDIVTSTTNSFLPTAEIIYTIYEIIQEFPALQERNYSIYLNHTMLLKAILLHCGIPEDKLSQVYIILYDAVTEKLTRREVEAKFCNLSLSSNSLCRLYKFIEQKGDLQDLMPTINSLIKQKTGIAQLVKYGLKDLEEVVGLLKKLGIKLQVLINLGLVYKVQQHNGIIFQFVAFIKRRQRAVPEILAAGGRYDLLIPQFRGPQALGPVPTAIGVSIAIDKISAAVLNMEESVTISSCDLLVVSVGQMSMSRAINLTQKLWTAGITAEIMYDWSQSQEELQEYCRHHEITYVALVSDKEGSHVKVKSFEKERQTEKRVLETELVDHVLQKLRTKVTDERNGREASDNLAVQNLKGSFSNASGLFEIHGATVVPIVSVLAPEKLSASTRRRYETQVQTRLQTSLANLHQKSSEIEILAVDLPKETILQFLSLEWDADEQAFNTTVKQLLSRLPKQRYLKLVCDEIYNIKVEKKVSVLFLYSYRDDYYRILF
Summary of the method: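 Compound effect on GCN2 is gauged by eIF2α Ser51 phosphorylation in borrelidin-challenged U2OS cells (10 μM, 1 h). Top compound level is 40 μM final.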

Chain of GCN2 kinase (Q9P2K8 whole entry): as above

`FC(F)(F)c1cn2c(-c3nccc(N4CCC5(CC4)CNC5)n3)cnc2cn1` [IV-692, 3-(4-(2,7-Diazaspiro[3.5]nonan-7-yl)pyrimidin-2-yl)-6-(trifluoromethyl)imidazo[1,2-a]pyrazine] showed a Ki (GCN2 kinase) of 100 to 1000 nM and an IC50 [1] of over 5000 nM.

Compound `CC1C(c2cn[nH]c2)CC(P(C)(C)=O)CN1c1ccnc(-c2cnc3cnc(C(F)(F)F)cn23)n1` (stereo not drawn) [IV-693, Dimethyl(6-methyl-5-(1H-pyrazol-4-yl)-1-(2-(6-(trifluoromethyl)imidazo[1,2-a]pyrazin-3-yl)pyrimidin-4-yl)piperidin-3-yl)phosphine oxide] has a Ki (GCN2 kinase) of 10 to 100 nM and an IC50 [1] of over 5000 nM.

Work on `FC(F)(F)c1cn2c(-c3nccc(N4CCCC(c5cocn5)C4)n3)cnc2cn1` (stereo not drawn) [IV-694, 4-(1-(2-(6-(Trifluoromethyl)imidazo[1,2-a]pyrazin-3-yl)pyrimidin-4-yl)piperidin-3-yl)oxazole] yielded a Ki (GCN2 kinase) of 100 to 1000 nM and an IC50 [1] of over 5000 nM.

Compound `FC(F)(F)c1cn2c(-c3nccc(N4CCC(Oc5cn[nH]c5)C4)n3)cnc2cn1` (stereo not drawn) [IV-695, 3-(4-(3-((1H-Pyrazol-4-yl)oxy)pyrrolidin-1-yl)pyrimidin-2-yl)-6-(trifluoromethyl)imidazo[1,2-a]pyrazine] has a Ki (GCN2 kinase) of 10 to 100 nM and an IC50 [1] of over 5000 nM.

Compound `FC(F)(F)c1cn2c(-c3nccc(N4CCCC(C5CNC5)C4)n3)cnc2cn1` (stereo not drawn) [IV-696, 3-(4-(3-(Azetidin-3-yl)piperidin-1-yl)pyrimidin-2-yl)-6-(trifluoromethyl)imidazo[1,2-a]pyrazine] has a Ki (GCN2 kinase) of 100 to 1000 nM and an IC50 [1] of over 5000 nM.

Work on `FC(F)c1cn2c(-c3nsc(N4CCOC(c5cn[nH]c5)C4)n3)cnc2cn1` (stereo not drawn) [IV-702, 4-(3-(6-(difluoromethyl)imidazo[1,2-a]pyrazin-3-yl)-1,2,4-thiadiazol-5-yl)-2-(1H-pyrazol-4-yl)morpholine] yielded a Ki (GCN2 kinase) of 100 to 1000 nM and an IC50 [1] of over 5000 nM.

`CS(=O)(=O)NC[C@@H]1CN(c2nc(-c3cnc4cnc(C(F)F)cn34)ns2)CCO1` [IV-703, (S)—N-((4-(3-(6-(difluoromethyl)imidazo[1,2-a]pyrazin-3-yl)-1,2,4-thiadiazol-5-yl)morpholin-2-yl)methyl)methanesulfonamide] showed a Ki (GCN2 kinase) of 100 to 1000 nM and an IC50 [1] of over 5000 nM.

Work on `FC(F)(F)c1cn2c(-c3nsc(N4CCOC(c5cn[nH]c5)C4)n3)cnc2cn1` (stereo not drawn) [IV-704, 2-(1H-pyrazol-4-yl)-4-(3-(6-(trifluoromethyl)imidazo[1,2-a]pyrazin-3-yl)-1,2,4-thiadiazol-5-yl)morpholine] yielded a Ki (GCN2 kinase) of 100 to 1000 nM and an IC50 [1] of over 5000 nM.

`CS(=O)(=O)NC[C@@H]1CN(c2nc(-c3cnc4cnc(C(F)(F)F)cn34)ns2)CCO1` [IV-705, (S)—N-((4-(3-(6-(trifluoromethyl)imidazo[1,2-a]pyrazin-3-yl)-1,2,4-thiadiazol-5-yl)morpholin-2-yl)methyl)methanesulfonamide] gave a Ki (GCN2 kinase) of 100 to 1000 nM and an IC50 [1] of over 5000 nM.

Work on `Cc1noc([C@@H]2CN(c3ccnc(-c4cnc5cnc(C(F)(F)F)cn45)n3)C[C@H](C)O2)n1` [IV-712] yielded a Ki (GCN2 kinase) of 100 to 1000 nM and an IC50 [1] of over 5000 nM.

In the case of `Cc1nnc([C@@H]2CN(c3ccnc(-c4cnc5cnc(C(F)(F)F)cn45)n3)C[C@H](C)O2)o1` [IV-716], the Ki (GCN2 kinase) is reported as 100 to 1000 nM and the IC50 [1] is reported as over 5000 nM.

Compound `FC(F)(F)c1cn2c(-c3nccc(N4CCOC(c5ccncc5)C4)n3)cnc2cn1` (stereo not drawn) [IV-724] has a Ki (GCN2 kinase) of over 1000 nM and an IC50 [1] of over 5000 nM.

Compound `O=C(N[C@H]1CCCN(c2ccnc(-c3cnc4cnc(C(F)(F)F)cn34)n2)C1)c1cn[nH]c1` [IV-733] has a Ki (GCN2 kinase) of over 1000 nM and an IC50 [1] of over 5000 nM.

`N#Cc1cccc(C(=O)N[C@H]2CCCN(c3ccnc(-c4cnc5cnc(C(F)(F)F)cn45)n3)C2)c1` [IV-741] gave a Ki (GCN2 kinase) of over 1000 nM and an IC50 [1] of over 5000 nM.

Compound `N#Cc1ccc(C(=O)N[C@H]2CCCN(c3ccnc(-c4cnc5cnc(C(F)(F)F)cn45)n3)C2)cc1` [IV-743] has a Ki (GCN2 kinase) of over 1000 nM and an IC50 [1] of over 5000 nM.

Reference: patent US10988477B2 (Merck Patent GmbH, priority 2018, dated 2021)
